Test results as given in publication PMC10724200, “A peptide derived from interleukin-10 exhibits potential anticancer activity and can facilitate cell targeting of gold nanoparticles loaded with anticancer therapeutics” (Communications Chemistry, 2023).
Ends that are not written are not given here.

Columns and labels:
[1] = target: T1, recombinant receptor human IL-10Ra protein (Homo sapiens, UniProt Q13651); test: Biolayer interferometry kinetic assay, binding to IL-10Ra; conditions: read-out: ka (association constant)
T1 sequence (Q13651 22-578): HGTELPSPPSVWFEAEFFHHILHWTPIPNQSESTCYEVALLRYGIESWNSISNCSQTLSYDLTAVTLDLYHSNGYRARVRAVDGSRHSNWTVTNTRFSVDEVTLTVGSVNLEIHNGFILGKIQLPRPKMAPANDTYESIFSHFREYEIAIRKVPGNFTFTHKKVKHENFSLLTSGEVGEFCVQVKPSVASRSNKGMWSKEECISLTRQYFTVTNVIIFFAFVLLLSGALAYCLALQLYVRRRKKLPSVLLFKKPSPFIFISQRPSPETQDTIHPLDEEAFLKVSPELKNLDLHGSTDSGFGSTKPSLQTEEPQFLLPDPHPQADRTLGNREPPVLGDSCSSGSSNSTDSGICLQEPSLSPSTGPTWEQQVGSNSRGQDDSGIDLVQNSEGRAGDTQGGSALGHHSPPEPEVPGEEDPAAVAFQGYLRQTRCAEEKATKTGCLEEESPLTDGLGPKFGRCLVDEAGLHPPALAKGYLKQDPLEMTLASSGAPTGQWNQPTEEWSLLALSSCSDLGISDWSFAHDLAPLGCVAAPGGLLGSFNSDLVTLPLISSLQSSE
Experimental: (§1) Biolayer interferometry (BLI) was applied to analyze peptide–receptor protein interactions. BLI was performed with a ForteBio Octet RED96e System (Sartorius AG, Göttingen, Germany) by using high-precision streptavidin and biosensors. The biosensors were hydrated in a plate for 15 min and then loaded with 10 μg/mL recombinant receptor human IL-10Ra protein and incubated for 150 s. […] After the association step, the biosensor was shifted to the dissociation buffer, phosphate-buffered saline (PBS) with 0.05% Tween20, for dissociation. Dissociation was recorded until equilibrium was reached (120 s).
To measure the binding ability of the designed and negative control peptides (NM25, NK20, NK20a, and control scramble peptide CG20) to the receptor IL-10Ra in vitro, BLI experiments were performed. […] When binding with IL-10Ra, the association constant (ka) of NK20 and NK20a was 1.02 × 10^4 (1/Ms) and 8.14 × 10^3 (1/Ms), respectively. The ka values of the refined peptides were approximately 12-fold higher than that of NM25. […] The equilibrium dissociation constant (KD) of NK20a interactions with IL-1R1was approximately 2000 times greater than that with IL-10Ra, and the calculated dissociation constant of NK20a interactions with IL-1R1 was to be 5000 times greater than that with IL-10Ra interactions (Table 2). […] As a result, NK20a was used for further investigations in this study.
Fig. 3 BLI kinetic assays of the designed peptides binding to the receptor IL-10Ra. Wavelength shift curves show the association and dissociation of the designed peptides (a) NM25, (b) NK20, (c) NK20a, (d) CG20 binding to the IL-10 receptor, and (e) NK20a binding to a control receptor IL-1R1 at various concentrations. Dissociation was recorded at 120 s after the binding started (black dotted line).

IL-1R1 = target: T2, IL-1R1 (Homo sapiens, UniProt P14778); test: Biolayer interferometry kinetic assay, binding to control receptor IL-1R1; conditions: read-out: ka (association constant)
T2 sequence (P14778 18-569): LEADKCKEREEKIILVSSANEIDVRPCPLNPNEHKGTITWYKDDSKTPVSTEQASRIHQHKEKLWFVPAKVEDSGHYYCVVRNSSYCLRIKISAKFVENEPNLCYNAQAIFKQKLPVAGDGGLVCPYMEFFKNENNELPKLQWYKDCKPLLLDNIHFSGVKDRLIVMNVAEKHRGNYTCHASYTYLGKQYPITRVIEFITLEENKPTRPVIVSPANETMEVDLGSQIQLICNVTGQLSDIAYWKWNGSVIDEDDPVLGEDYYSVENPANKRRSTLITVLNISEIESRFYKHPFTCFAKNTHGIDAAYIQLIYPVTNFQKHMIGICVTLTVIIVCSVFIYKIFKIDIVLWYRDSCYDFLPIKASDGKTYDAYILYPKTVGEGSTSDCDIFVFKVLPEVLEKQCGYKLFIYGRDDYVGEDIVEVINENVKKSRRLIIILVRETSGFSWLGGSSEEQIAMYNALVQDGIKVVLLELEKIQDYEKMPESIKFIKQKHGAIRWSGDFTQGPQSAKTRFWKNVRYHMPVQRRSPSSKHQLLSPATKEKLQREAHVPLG
Experimental: as §1
To measure the binding ability of the designed and negative control peptides (NM25, NK20, NK20a, and control scramble peptide CG20) to the receptor IL-10Ra in vitro, BLI experiments were performed. […] When binding with IL-10Ra, the association constant (ka) of NK20 and NK20a was 1.02 × 10^4 (1/Ms) and 8.14 × 10^3 (1/Ms), respectively. […] The equilibrium dissociation constant (KD) of NK20a interactions with IL-1R1was approximately 2000 times greater than that with IL-10Ra, and the calculated dissociation constant of NK20a interactions with IL-1R1 was to be 5000 times greater than that with IL-10Ra interactions (Table 2). […]
Fig. 3 BLI kinetic assays of the designed peptides binding to the receptor IL-10Ra. […] Dissociation was recorded at 120 s after the binding started (black dotted line).

With NMLRNLRNAFSRVKTFFQMK [NK20a] the kon [1] was 8140 M⁻¹ s⁻¹ and the kon (IL-1R1) was 18300 M⁻¹ s⁻¹.
